From ChEMBL document CHEMBL5506068 (J Med Chem, 2024)
pKd: −log10 of the molar value. Calls of active or inactive are those of the source. The calls are words filed in the database; no cut-off is given here.

Assays:
[1] = Toxicity in Swiss Webster mouse assessed as reduction in sedative effect at 0.05 to 0.5 mg/kg,sc; format: organism-based; settings: in vivo, dose 0.05-0.5 mg/kg
[2] = test system: Mus musculus; experiment: Antinociception activity in male Swiss Webster mouse model assessed as effect on tail withdrawal latency at 0.05 to 0.1 mg/kg, sc pre incubated with nor-BNI for 24 hrs followed by compound addition and measured after 20 mins by warm water tail immersion assay; format: functional, organism-based; settings: dose 0.05-0.1 mg/kg
[3] = Toxicity in Swiss Webster mouse assessed as effect on average speed at 0.05 to 0.5 mg/kg,sc measured after 30 mins; format: organism-based; settings: in vivo, 0.5 h, dose 0.05-0.5 mg/kg
[4] = test system: Mus musculus; experiment: Antinociception activity in male Swiss Webster mouse model assessed as effect on tail withdrawal latency at 0.05 to 0.1 mg/kg, sc pre incubated with naltrindole for 30 mins followed by compound addition and measured after 20 mins by warm water tail immersion assay; format: functional, organism-based; settings: dose 0.05-0.1 mg/kg
[5] = in vivo; settings: Swiss Webster, mouse, blood and plasma, sc, 0.1 mg/kg
Description: Ratio of drug level in Swiss Webster mouse blood to plasma at 0.1 mg/kg, sc measured after 30 mins by LC-MS/MS analysis

[6] = test system: Mus musculus; experiment: Antinociception activity in male Swiss Webster mouse model assessed as increase in maximum possible effect at 0.1 mg/kg, sc measured after 30 to 360 mins post injection by warm-water tail immersion assay; format: functional, organism-based; settings: time 30-360 min
[7] = target: T1, Delta-type opioid receptor (Homo sapiens, UniProt P41143); experiment: Agonist activity at human DOR expressed in CHO cells increase in [35S]GTPgammaS binding measured after […] by scintillation counter analysis relative to SNC80; format: functional, cell-based; settings: filed as agonist
T1 sequence (P41143 whole entry, the tested form may be a part): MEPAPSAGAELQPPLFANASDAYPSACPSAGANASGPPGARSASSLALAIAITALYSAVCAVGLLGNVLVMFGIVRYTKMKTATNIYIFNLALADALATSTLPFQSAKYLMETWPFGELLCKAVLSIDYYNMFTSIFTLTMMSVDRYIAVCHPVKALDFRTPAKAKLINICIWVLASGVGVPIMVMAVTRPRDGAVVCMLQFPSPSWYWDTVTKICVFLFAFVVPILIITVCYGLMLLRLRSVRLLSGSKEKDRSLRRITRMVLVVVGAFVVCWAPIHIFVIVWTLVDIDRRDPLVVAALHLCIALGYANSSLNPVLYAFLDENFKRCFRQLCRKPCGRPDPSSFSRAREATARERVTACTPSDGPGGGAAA

[8] = Abuse liability in male Sprague-Dawley rat assessed as reduction in reinforcement at 0.32 to 10 microg/kg administered per infusion; format: toxicity; settings: in vivo, iv, dose 0.32-10 µg/kg
[9] = Toxicity in Swiss Webster mouse assessed as effect on locomotion at 0.05 to 0.5 mg/kg,sc measured after 30 mins; format: organism-based; settings: in vivo, 0.5 h, dose 0.05-0.5 mg/kg
[10] = target: Kappa-type opioid receptor (Mus musculus, UniProt P33534); experiment: Displacement of [3H]diprenorphine from mouse KOR expressed in CHO cells assessed as dissociation constant incubated for […] by radioligand binding assay; format: cell-based
Sequence of Kappa-type opioid receptor (P33534 whole entry): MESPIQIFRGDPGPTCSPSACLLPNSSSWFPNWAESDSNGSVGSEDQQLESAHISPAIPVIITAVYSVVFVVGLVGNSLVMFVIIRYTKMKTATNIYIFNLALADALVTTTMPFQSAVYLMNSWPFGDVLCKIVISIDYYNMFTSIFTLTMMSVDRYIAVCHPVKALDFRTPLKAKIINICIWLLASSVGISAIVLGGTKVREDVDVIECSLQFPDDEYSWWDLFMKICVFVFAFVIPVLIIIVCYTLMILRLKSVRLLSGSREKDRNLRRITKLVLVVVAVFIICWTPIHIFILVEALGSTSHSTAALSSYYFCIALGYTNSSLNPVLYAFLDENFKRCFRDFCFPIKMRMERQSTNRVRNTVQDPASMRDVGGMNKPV

[11] = test system: Mus musculus; experiment: Antinociception activity in male Swiss Webster mouse model assessed as increase in maximum possible effect at 10 mg/kg, sc measured after 20 mins by warm-water tail immersion assay relative to control; format: functional
[12] = target: Mu-type opioid receptor (Mus musculus, UniProt P42866); experiment: Displacement of [3H]Naloxone from mouse MOR expressed in CHO cells assessed as dissociation constant incubated for […] by radioligand binding assay; format: cell-based
Sequence of Mu-type opioid receptor (P42866 whole entry): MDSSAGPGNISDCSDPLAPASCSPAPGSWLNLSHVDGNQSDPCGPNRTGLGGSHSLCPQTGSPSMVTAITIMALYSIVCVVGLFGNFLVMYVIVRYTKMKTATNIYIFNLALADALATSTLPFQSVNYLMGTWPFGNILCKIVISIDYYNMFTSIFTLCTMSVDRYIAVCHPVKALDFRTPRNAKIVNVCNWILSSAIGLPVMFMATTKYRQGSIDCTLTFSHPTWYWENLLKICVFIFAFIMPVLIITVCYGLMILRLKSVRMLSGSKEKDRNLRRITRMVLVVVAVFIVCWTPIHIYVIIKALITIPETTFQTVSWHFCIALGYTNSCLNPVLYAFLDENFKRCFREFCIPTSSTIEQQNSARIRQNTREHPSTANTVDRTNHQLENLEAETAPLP

[13] = test system: Mus musculus; experiment: Antinociception activity in male Swiss Webster mouse model assessed as effect on tail withdrawal latency at 0.05 to 0.1 mg/kg, sc pre incubated with nor-BNI/naltrindole for 24 hrs followed by compound addition and measured after 20 mins by warm water tail immersion assay; format: functional, organism-based; settings: dose 0.05-0.1 mg/kg
[14] = Drug uptake in Swiss Webster mouse plasma at 0.1 mg/kg, sc measured after 5 mins by LC-MS/MS analysis; format: ADME, organism-based; settings: in vivo
[15] = test system: Mus musculus; experiment: Antinociception activity in male Swiss Webster mouse model assessed as increase in maximum possible effect at 0.05 mg/kg, sc measured until 3 hrs post injection by warm-water tail immersion assay; format: functional, organism-based
[16] = test system: Mus musculus; experiment: Antinociception activity in male Swiss Webster mouse model assessed as increase in maximum possible effect at 0.05 mg/kg, sc measured after 6 hrs post injection by warm-water tail immersion assay; format: functional, organism-based
[17] = in vivo; settings: Swiss Webster, mouse, blood and plasma, sc, 0.1 mg/kg; remark: listed apart in the source
Description: Ratio of drug level in Swiss Webster mouse blood to plasma at 0.1 mg/kg, sc measured after 60 mins by LC-MS/MS analysis

[18] = in vivo; settings: Swiss Webster, mouse, blood and plasma, sc, 0.1 mg/kg; remark: listed apart in the source
Description: Ratio of drug level in Swiss Webster mouse blood to plasma at 0.1 mg/kg, sc measured after 10 mins by LC-MS/MS analysis

[19] = target: T1, Delta-type opioid receptor; experiment: Displacement of [3H]diprenorphine from human DOR expressed in CHO cells assessed as dissociation constant incubated for […] by radioligand binding assay; format: cell-based

In the case of `CN(C(=O)/C=C/c1ccco1)[C@@H]1CC[C@@]2(O)[C@H]3Cc4ccc(O)c5c4[C@@]2(CCN3CC2CC2)[C@H]1O5.Cl`, the Activity [1] was “Toxic”, the Activity [2] was “inactive” and the Activity [3] was “Toxic”. For the same compound, the Activity [4] was “inactive”, the blood plasma ratio at 0.5 h [5] was 0.645 and the Activity [6] was “Active”. For the same compound, the Emax [7] was 96.1%, the Activity [8] was “Non-Toxic” and the Activity [9] was “Toxic”. It also gave a pKd [10] of 9.66, an MPE [11] of 100% and a pKd [12] of 9.11. For the same compound, the Activity [13] was “inactive”, the Drug uptake [14] was “Active” and the Activity [15] was “Active”. For the same compound, the Activity [16] was “inactive”, the blood plasma ratio at 1 h [17] was 1.45 and the blood plasma ratio at 10 min [18] was 0.762. For the same compound, the pKd [19] was 8.10.
